The nature of the data set: Toxicity and tissue irritation. The following applies: 1,8-cineole content of the oil.

Structures are written as SMILES.

Turning to `CC12CCC(CC1)C(C)(C)O2` [1,8-cineole], the “concentration that produces tissue irritation” value is reported as “above 10%”.

For the origin of these results see patent US6458391B1, “Compositions comprising oleum Melaleuca” (Safe ′N Sound Solutions, Inc., priority 1998, dated 2002).
